Residue numbers refer to the chain shown, from its start.
Legend:
Format in all cases: cell-based
[1] = target: T1, α-Gal A mutant form Y152D (Homo sapiens, UniProt P06280, Y152D); assay: α-Gal A activity in lysates of transfected HEK-293 cells, Y152D
T1 construct: expressed in transfected cells; host or cells: HEK-293
T1 sequence (P06280 32-429 Y152D): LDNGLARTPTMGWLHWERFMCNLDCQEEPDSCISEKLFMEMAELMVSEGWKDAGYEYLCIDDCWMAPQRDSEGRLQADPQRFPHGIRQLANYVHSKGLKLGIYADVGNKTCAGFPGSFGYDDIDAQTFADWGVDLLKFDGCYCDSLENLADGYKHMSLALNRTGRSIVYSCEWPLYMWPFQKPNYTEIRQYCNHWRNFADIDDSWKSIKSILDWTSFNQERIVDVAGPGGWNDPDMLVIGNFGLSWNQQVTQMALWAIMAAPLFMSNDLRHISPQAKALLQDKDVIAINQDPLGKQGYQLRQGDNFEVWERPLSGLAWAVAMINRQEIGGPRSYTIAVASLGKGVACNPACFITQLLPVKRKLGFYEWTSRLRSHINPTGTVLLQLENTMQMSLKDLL
Description: (§1) Baseline and 10 μM migalastat α-Gal A activity: Differences in the α-Gal A activity between lysates incubated in the absence and presence of 10 μM migalastat were determined using a one-tailed, Mann Whitney U test; an increase at 10 μM migalastat with a p<0.05 was considered significant.
(§2) 10 μM migalastat α-Gal A activity (% WT)=(α-Gal A activity in mutant transfected cell lysates incubated with 10 μM migalastat÷α-Gal A activity in wild-type transfected cell lysates without migalastat)*100.
(§3) Absolute increase (% WT)=is the 10 μM migalastat α-Gal A activity (% WT) minus the baseline α-Gal A activity (% WT).
(§4) Relative increase is the 10 μM migalastat α-Gal A activity in mutant transfected cell lysates÷baseline α-Gal A activity in mutant transfected cell lysates incubated without migalastat.

α-Gal A mutant form N34H = target: T2, α-Gal A mutant form N34H (Homo sapiens, UniProt P06280, N34H); assay: α-Gal A activity in lysates of transfected HEK-293 cells, N34H
T2 construct: expressed in transfected cells; host or cells: HEK-293
T2 sequence (P06280 32-429 N34H): T1 sequence (P06280 32-429 Y152D) with N3H, D121Y
Description: as §1, §2, §3, §4

α-Gal A mutant form Y88S = target: T3, α-Gal A mutant form Y88S (Homo sapiens, UniProt P06280, Y88S); assay: α-Gal A activity in lysates of transfected HEK-293 cells, Y88S; conditions: Y-88S
T3 construct: expressed in transfected cells; host or cells: HEK-293
T3 sequence (P06280 32-429 Y88S): T1 sequence (P06280 32-429 Y152D) with Y57S, D121Y
Description: as §1, §2, §3, §4

[2] = target: T4, α-Gal A mutant form E338V (Homo sapiens, UniProt P06280, E338V); assay: α-Gal A activity in lysates of transfected HEK-293 cells, E338V
T4 construct: expressed in transfected cells; host or cells: HEK-293
T4 sequence (P06280 32-429 E338V): T1 sequence (P06280 32-429 Y152D) with D121Y, E307V
Description: as §1, §2, §3, §4

α-Gal A mutant form G80V = target: T5, α-Gal A mutant form G80V (Homo sapiens, UniProt P06280, G80V); assay: α-Gal A activity in lysates of transfected HEK-293 cells, G80V
T5 construct: expressed in transfected cells; host or cells: HEK-293
T5 sequence (P06280 32-429 G80V): T1 sequence (P06280 32-429 Y152D) with G49V, D121Y
Description: as §1, §2, §3, §4

[3] = 10 μM migalastat minus baseline
[4] = 10 μM migalastat ÷ baseline activity
[5] = HEK-293 lysates, 10 μM migalastat, 5 days, mean ± SEM

- Absolute increase (% WT) [1, 3]: 10.7 % WT
- Relative increase [1, 4]: 2.75
- 10 μM migalastat α-Gal A activity [1, 5]: 6594 ± 294 nmol/mg/h
- 10 μM migalastat α-Gal A activity (% WT) [1, 5]: 16.7 ± 1.1 % WT
- Absolute increase (% WT) (α-Gal A mutant form N34H; 10 μM migalastat minus baseline (baseline BLD)): 3.6 % WT
- 10 μM migalastat α-Gal A activity (% WT) (α-Gal A mutant form N34H; [5]): 3.6 ± 0.2 % WT
- 10 μM migalastat α-Gal A activity (α-Gal A mutant form N34H; HEK-293 lysates, 10 μM migalastat, 5 days, mean ± SEM, baseline BLD): 1414 ± 100 nmol/mg/h
- Absolute increase (% WT) (α-Gal A mutant form Y88S; [3]): 10.3 % WT
- Relative increase (α-Gal A mutant form Y88S; [4]): 3.67
- 10 nM migalastat α-Gal A activity (α-Gal A mutant form Y88S; HEK-293 lysates, 10 nM migalastat as printed, 5 days, mean ± SEM): 5542 ± 376 nmol/mg/h
- 10 μM migalastat α-Gal A activity (% WT) (α-Gal A mutant form Y88S; [5]): 14.1 ± 1.3 % WT
- Absolute increase (% WT) [2, 3]: 24.7 % WT
- Relative increase [2, 4]: 1.83
- 10 μM migalastat α-Gal A activity [2, 5]: 21807 ± 845 nmol/mg/h
- 10 μM migalastat α-Gal A activity (% WT) [2, 5]: 54.8 ± 2.2 % WT
- Absolute increase (% WT) (α-Gal A mutant form G80V; [3]): 4.3 % WT
- Relative increase (α-Gal A mutant form G80V; [4]): 3.18
- 10 μM migalastat α-Gal A activity (α-Gal A mutant form G80V; [5]): 2434 ± 333 nmol/mg/h
- 10 μM migalastat α-Gal A activity (% WT) (α-Gal A mutant form G80V; [5]): 6.4 ± 0.6 % WT
SMILES: OC[C@H]1NC[C@H](O)[C@@H](O)[C@H]1O [migalastat, (2R,3S,4R,5S)-2-(hydroxymethyl) piperdine-3,4,5-triol]

— patent publication US12594268B2, “Methods of treating Fabry disease in patients having a mutation in the GLA gene” (Amicus Therapeutics, Inc., priority 2018, dated 2026)
